Experimental data published in patent US7435850B2, “Naphthalene compounds” (Les Laboratoires Servier, priority 2006, dated 2008).

Legend:
[1] = molecular target: T1, MT2 receptor (Homo sapiens, UniProt P49286); experiment: Melatonin MT2 receptor binding study
T1 sequence (P49286 1-362): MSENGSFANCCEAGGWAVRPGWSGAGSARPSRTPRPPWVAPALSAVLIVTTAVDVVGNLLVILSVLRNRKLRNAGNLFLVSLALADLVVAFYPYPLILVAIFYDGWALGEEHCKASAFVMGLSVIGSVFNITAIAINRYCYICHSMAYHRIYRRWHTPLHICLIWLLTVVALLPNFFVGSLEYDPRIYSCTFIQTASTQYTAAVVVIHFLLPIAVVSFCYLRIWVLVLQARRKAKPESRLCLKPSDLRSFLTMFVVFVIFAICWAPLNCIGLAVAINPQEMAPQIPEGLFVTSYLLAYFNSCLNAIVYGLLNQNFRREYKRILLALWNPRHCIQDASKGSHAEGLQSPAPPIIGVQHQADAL
Procedure: (§1) The MT1 or MT2 receptor binding experiments are carried out using 2-[^125 I]-iodomelatonin as reference radioligand. The radioactivity retained is determined using a liquid scintillation counter.
(§2) Competitive binding experiments are then carried out in triplicate using the various test compounds. A range of different concentrations is tested for each compound. The results enable the binding affinities of the compounds tested (Ki) to be determined.

[2] = molecular target: MT1 receptor (Homo sapiens, UniProt P48039); experiment: Melatonin MT1 receptor binding study
Chain of MT1 receptor (P48039 whole entry): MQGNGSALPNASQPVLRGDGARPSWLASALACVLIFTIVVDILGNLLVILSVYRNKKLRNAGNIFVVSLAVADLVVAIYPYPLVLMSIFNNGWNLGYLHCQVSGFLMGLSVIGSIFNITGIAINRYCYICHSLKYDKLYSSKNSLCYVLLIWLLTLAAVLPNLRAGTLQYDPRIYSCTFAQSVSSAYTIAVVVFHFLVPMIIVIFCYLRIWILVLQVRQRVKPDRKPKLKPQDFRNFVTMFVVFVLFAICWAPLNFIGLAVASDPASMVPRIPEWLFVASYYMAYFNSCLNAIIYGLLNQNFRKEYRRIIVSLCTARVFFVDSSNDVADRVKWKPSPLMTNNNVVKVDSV
Procedure: as §1, §2

In the case of `COc1ccc2cccc(C(CO)CNC(=O)CF)c2c1` (centres unmarked) [Example 1, 2-Fluoro-N-[3-hydroxy-2-(7-methoxy-1-naphthyl)propyl]acetamide], the Ki [1] is reported as 0.5 nM and the Ki [2] is reported as 4.7 nM.
